Measured values from patent US11439615B2, “Lipoxin and lipoxin analogue mediated neuroprotection and treatments” (University Health Network, priority 2017, dated 2022).

Columns and labels:
HT22 cells [1] = assay: Glutamate challenge of HT22 neuronal cells, viability; type: cell-based; details: for efficacy of neuroprotection / EC50: HT22 cells exposed to glutamate stress, nonlinear regression; for EC50: Mus musculus, HT-22, n=3/point, read-out: EC50 of neuroprotection; for viability of glutamate challenged HT22 cells: increasing concentrations up to 500 nM, 5 mM glutamate
Experimental: An in vitro assay to recapitulate key aspects of the acute KA model was established. In this case, unconcentrated ACM was applied to the glutamate sensitive neuronal cell line HT22 (66, 67). Glutamate challenge of 5 mM was titrated to induce 60-80% cell death (ie: 20-40% survival). […] The media was concentrated for proteomic analyses.
LXA4 and LXB4 promote direct neuroprotective signaling. To the inventor's knowledge, a role for lipoxins as direct neuroprotective or neurotrophic factors has not been reported. Although their established anti-inflammatory actions extend to the CNS (29-32). However, it was hypothesized they may have indirect protective effects. In order to test whether the protective activity was direct or indirect, LXA4 or LXB4 was applied to neuronal cells in an established in vitro assay.
There is no established receptor for LXB4. However, LXB4 shares structural homology with LXA4 and the DHA-derived resolving D2 (RvD2), which mediate their actions via FPR2 or GPR18 (74), respectively. Therefore, it was assessed whether specific receptor antagonists for FPR2 or GPR18 could block LXB4 mediated protection.
As shown in FIG. 14 lipoxin neuroprotection is dose responsive. Dose responses were generated for LXA4 (open circles) and LXB4 (closed circles) in HT22 cells exposed to glutamate stress, followed by nonlinear regression analyses.

[2] = test system: dopaminergic SH-SY5Y cells; assay: Mitochondrial oxidative stress in SH-SY5Y cells challenged with paraquat; type: cell-based; details: paraquat (PQ) induced oxidative stress, vs vehicle
primary RGCs = assay: Primary RGCs under paraquat oxidative stress, cell and neurite survival; type: cell-based, rat; details: 1 μM, 24 hours of 30 μM PQ
Experimental: FIG. 5D is a graph showing Mitotracker red signal which indicates protection from […] membrane potential with LXB4 treatment (n=3). FIG. 5E is a series of images showing primary RGCs labeled with β3-tubulin extend an extensive network of neurites that disintegrate dramatically after 24 hours of 30 μM PQ. […] (Scale bar indicates 20 μm, *p<0.05, **p<0.01, bars are S.E.M.).
For astrocytes: Primary mature retinal astrocytes (RA) were isolated and cultured as previously described (46). Briefly, eyes were dissected out of adult Wistar rats and placed in ice-cold MEM-H17 media. Isolated retinas were digested by shaking in MEM-H17 containing papain and DNAse, followed by trituration to disperse cell-aggregates. When cultures reached confluence, the cells were placed on a rotating shaker for 6-8 hours to remove microglia and then re-plated. A glial-specific expression profile was confirmed by probing the cultures with a panel of glia microglia and neuronal markers (44). For RGCs: RGCs were purified using magnetic MicroBeads (Miltenyi Biotec, Germany) according to the manufacturer's protocol. Briefly; retinal cell suspensions were prepared from 8-10 day old rats and incubated with CD90.1 microbeads, and then carefully washed with DPBS/BSA buffer. The suspension was centrifuged at 130×g and the supernatant aspirated. Cells were then incubated with biotinylated depletion antibodies against microglia and endothelial cells. The labeled cell suspension was then incubated with magnetic Anti-Biotin MACSiBead™ Particles, and placed in a weak magnetic field. The pre-enriched cell suspension was centrifuged, and resuspended in fresh DPBS/BSA buffer and applied to a MACs MS separation column in the presence of a strong magnetic field to select for CD90.1-bound RGCs. To increase RGC purity, the eluted fraction was enriched over a second column. Purified RGCs were eluted and plated on poly-D-lysine coated dishes. The cells were cultured in Neurobasal-A media (Gibco) supplemented with 2% calf serum, B27, L-glutamine, BDNF, CNTF, forskolin and pen/strep.

primary cortical neurons = assay: Primary cortical neurons under paraquat oxidative stress, neuron number; type: cell-based; details: n=5
From the text: Quantification of neuron number following oxidative stress from the redox cycling compound paraquat in primary cortical neurons.

[3] = test system: retinal ganglion cell (RGC); assay: Mouse chronic glaucoma model (circumlimbal suture ocular hypertension); type: in vivo; details: 0.1 μg/μL locally and systemically every other day from week 5, n=10; for loss of RGC (RBPMS flatmount counts): end of 12 weeks; for reduction of RGC function (pSTR) / reduction of retinal nerve fiber layer (RNFL) thickness: week 12
Experimental: LXA4 and LXB4 treatment were assessed and found to be efficacious in a mouse chronic glaucoma model. Chronic ocular hypertension was induced in weaned male C57BL/6 mice using a monocular circumlimbal suture. From week 5, they were treated with either PBS vehicle, LXA4 or LXB4 (0.1 μg/μL, locally and systemically, every other day) (shaded areas). Retinal function (electroretinogram) and structure (optical coherence tomography) were measured weekly in all groups for 12 weeks. At the end of 12 weeks, animals were euthanized and retinal ganglion cell (RGC) counts were analyzed on retinal flatmounts by RBPMS immunostaining. […] (n=10 per group, bars represent S.E.M.).

HT22 cells [4] = assay: MitoTracker Red mitochondrial membrane potential in glutamate challenged HT22 cells; type: cell-based; details: 1 μM, HT22 cells challenged with glutamate
From the text: The mechanism of protection was investigated. […] FIG. 15B show quantification of fluorescent intensity per cell (n=3, *p<0.05, **p<0.01, bars represent S.E.M.).

| Structure (SMILES) | efficacy of neuroprotection (HT22 cells [1]) | EC50 (HT22 cells [1]) [nM] | viability of glutamate challenged HT22 cells (HT22 cells [1]) | mitochondrial oxidative stress / mitochondria stabilisation [2] | RGC survival following oxidative stress (primary RGCs) | neuron number following oxidative stress from paraquat (primary cortical neurons) | loss of RGC (RBPMS flatmount counts) [3] [%] | reduction of RGC function (pSTR) [3] [%] | reduction of retinal nerve fiber layer (RNFL) thickness [3] [%] | glutamate induced increase in mitochondrial membrane potential (MitoTracker Red) (HT22 cells [4]) | RGC neurite degeneration following PQ challenge (primary RGCs) |
| --- | --- | --- | --- | --- | --- | --- | --- | --- | --- | --- | --- |
| CCCCC[C@H](O)/C=C/C=C\C=C\C=C\[C@@H](O)[C@@H](O)CCCC(=O)O [LXA4, 5S,6R,15S-trihydroxy-7E,9E,11Z,13E-eicosatetraenoic acid] | 0.89 | 631 | significantly increased viability | stabilize mitochondria | significant rescue | have activities | −14.1±1.0 | −24.0±1.3 | −23.8±1.6 |  |  |
| CCCCC[C@H](O)[C@H](O)/C=C/C=C/C=C\C=C\[C@@H](O)CCCC(=O)O [LXB4, 5S,14R,15S-trihydroxy-6E,8Z,10E,12E-eicosatetraenoic acid] | 0.81 | 39.2 | significantly increased viability | stabilize mitochondria | significant rescue | have activities | −12.2±0.9 | −20.9±1.0 | −20.9±1.0 | blocked the glutamate induced increase in mitochondrial membrane potential | significantly rescued |
